The source made the active and inactive calls. The calls are words filed in the database; no cut-off is given here.

In general, IC50 refers to the concentration that inhibits the measured activity by half. The low end stands for higher potency, the high end for lower potency. In general, Ki refers to a dissociation constant, usually derived from enzyme kinetics or from competition with a known ligand. Read a low Ki as tighter binding.

Assay [1] can be described thus: Inhibition of C57BL/6 mouse synaptosomal choline transporter. Further details: species or system C57BL6.
The species named for a further assay is Mus musculus. Briefly: Inhibition of C57BL/6 mouse nicotinic acetyl choline receptor. The note with it: C57BL6.

As for `C[N+](C)(C)CCCCCCCCCC[N+](C)(C)C` [DECAMETHONIUM], the IC50 in assay [1] was 1.5 µM.
As for `C[N+](C)(CCCCCC[N+](C)(C)Cc1cccc(O)c1O)Cc1cccc(O)c1O`, the result in the assay listed under Mus musculus was Active. In assay [1], the midpoint of inhibition, the IC50, lay at 76 µM and the affinity, expressed as Ki, was 73 µM.
As for `C[N+](C)(C)CCCCCC[N+](C)(C)C` [HEXAMETHONIUM CHLORIDE], in assay [1], half-maximal inhibition (IC50) was put at 130 µM.
In the case of `C[N+](C)(CCCCCCCCCC[N+](C)(C)Cc1cccc(O)c1O)Cc1cccc(O)c1O`, the result in the assay filed under Mus musculus was Active. In assay [1], half-maximal inhibition (IC50) was put at 21 µM and the affinity corresponds to a Ki of 31 µM.

The values above are taken from ChEMBL document CHEMBL1137489, “Inhibition of choline transport by redox-active cholinomimetic bis-catechol reagents” (Bioorg Med Chem, 2007).
